The source of these data is patent US6683103B2, “Sulfonamides for treatment of endothelin-mediated disorders” (Texas Biotechnology Corporation, priority 1997, dated 2004).

One assay addresses T1, human ETB receptor (Homo sapiens, UniProt P24530).
T1 construct: expressed in transfected cells; host or cells: COS7 cells
T1 sequence (P24530 27-442): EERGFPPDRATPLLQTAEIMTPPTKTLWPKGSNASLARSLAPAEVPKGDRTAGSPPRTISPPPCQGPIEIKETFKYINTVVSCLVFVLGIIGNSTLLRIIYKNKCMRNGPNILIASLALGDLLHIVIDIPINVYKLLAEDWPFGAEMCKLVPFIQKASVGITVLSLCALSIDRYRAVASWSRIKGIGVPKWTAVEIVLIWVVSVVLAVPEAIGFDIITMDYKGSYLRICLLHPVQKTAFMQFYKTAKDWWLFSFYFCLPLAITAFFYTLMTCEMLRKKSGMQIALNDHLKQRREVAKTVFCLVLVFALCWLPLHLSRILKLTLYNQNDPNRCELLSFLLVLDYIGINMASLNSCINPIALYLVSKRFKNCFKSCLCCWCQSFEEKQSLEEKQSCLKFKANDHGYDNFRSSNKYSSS
The experiment in a line: Binding Test #2: inhibition of 125I-ET-1 binding to ETB receptors (transfected COS7 cell membranes). The note with it: read-out: ETB. An excerpt:
(§1) Compounds that are potential endothelin antagonists are identified by testing their ability to compete with ^125I-labeled ET-1 for binding to human ETA receptors or ETB receptors present on isolated cell membranes. The effectiveness of the test compound as an antagonist or agonist of the biological tissue response of endothelin can also be assessed by measuring the effect on endothelin induced contraction of isolated rat thoracic aortic rings. The ability of the compounds to act as antagonists or agonists for ETB receptors can be assess by testing the ability of the compounds are to inhibit endothelin-1 induced prostacyclin release from cultured bovine aortic endothelial cells.
B. Endothelin Binding Inhibition—Binding Test #2: Inhibition of Binding to ETB Receptors
COS7 cells were transfected with DNA encoding the ETB receptor, The resulting cells, which express the human ETB receptor, were grown to confluence in T-150 flasks. Membrane was prepared as described above. The binding assay was performed as described above using the membrane preparation diluted with binding buffer to a concentration of 1 μg/50 μl.
Briefly, the COS7 cells, described above, that had been transfected with DNA encoding the ETB receptor and express the human ETB receptor on their surfaces were grown to confluence in T-1 75 flasks. Cells from multiple flasks were collected by scraping, pooled and centrifuged for 10 min at 190×g. The cells were resuspended in phosphate buffered saline (PBS) containing 10 mM EDTA using a Tenbroeck homogenizer. The suspension was centrifuged at 4° C. 57,800 X g for 15 min, the pellet was resuspended in 5 ml of buffer A (5mM HEPES buffer, pH 7.4 containing aprotinin (100 KIU/ml)) and then frozen and thawed once. Five ml of Buffer B (5 mM HEPES Buffer, pH 7.4 containing 10 mM MnCl2 and 0.001% deoxyribonuclease Type 1) was added, the suspension mixed by inversion and then incubated at 37° C. for 30 minutes. The mixture was centrifuged at 57,800×g as described above, the pellet washed twice with buffer A and then resuspended in buffer C (30 mM HEPES buffer, pH 7.4 containing aprotinin (100 KIU/ml) to give a final protein concentration of 2 mg/ml.
The binding assay was performed as described above using the membrane preparation diluted to give 1 μg/50 μl of binding buffer.

For a further assay, the target named is T2, human ETA receptors (Homo sapiens, UniProt P25101).
T2 construct: endogenous in cells; host or cells: TE 671 cells (ATCC HTB 139)
T2 sequence (P25101 21-427): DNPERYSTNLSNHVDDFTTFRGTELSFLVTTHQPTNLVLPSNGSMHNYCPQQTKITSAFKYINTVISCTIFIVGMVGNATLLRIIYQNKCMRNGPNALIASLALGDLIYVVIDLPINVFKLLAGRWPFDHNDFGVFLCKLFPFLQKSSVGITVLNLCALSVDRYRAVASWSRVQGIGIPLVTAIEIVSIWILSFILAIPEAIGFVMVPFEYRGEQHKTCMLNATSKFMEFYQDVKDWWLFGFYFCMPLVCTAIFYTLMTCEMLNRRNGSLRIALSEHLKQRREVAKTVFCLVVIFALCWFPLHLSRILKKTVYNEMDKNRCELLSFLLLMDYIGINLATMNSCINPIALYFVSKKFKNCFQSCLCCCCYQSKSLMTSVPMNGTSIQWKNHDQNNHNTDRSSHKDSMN
Put plainly: Binding Test #1: inhibition of 125I-ET-1 binding to ETA receptors (TE 671 cell membranes). As to conditions: for IC50: read-out: ETA.
Source text: as §1
A. Endothelin Binding Inhibition—Binding Test #1: Inhibition of Binding to ETA Receptors
TE 671 cells (ATCC Accession No. HTB 139) express ETA receptors. These cells were grown to confluence in T-175 flasks. Cells from multiple flasks were collected by scraping, pooled and centrifuged for 10 min at 190×g. The cells were resuspended in phosphate buffered saline (PBS) containing 10 mM EDTA using a Tenbroeck homogenizer. The suspension was centrifuged at 4° C. at 57,800×g for 15 min, the pellet was resuspended in 5 ml of buffer A (5 mM HEPES buffer, pH 7.4 containing aprotinin (100 KIU/ml)) and then frozen and thawed once. 5 ml of Buffer B (5 mM HEPES Buffer, pH 7.4 containing 10 mM MnCl2 and 0.001% deoxyribonuclease Type 1) was added, the suspension mixed by inversion and then incubated at 37° C. for 30 minutes. The mixture was centrifuged at 57,800×g as described above, the pellet washed twice with buffer A and then resuspended in buffer C (30 mM HEPES buffer, pH 7.4 containing aprotinin (100 KIU/ml) to give a final protein concentration of 2 mg/ml and stored at −70° C. until use.
The membrane suspension was diluted with binding buffer (30 mM HEPES buffer, pH 7.4 containing 150 mM NaCl, 5mM MgCl2, 0.5% Bacitracin) to a concentration of 8 μg/50 μl. ^125I-endothelin-1 (3,000 cpm, […]) was added to 50 μL of either: (A) endothelin-1 (for non specific binding) to give a final concentration 80 nM); (B) binding buffer (for total binding); or (C) a test compound (final concentration 1 nM to 100 μM). The membrane suspension (50 μL), containing up to 8 μg of membrane protein, was added to each of (A), (B), or (C). Mixtures were shaken, and incubated at 4° C. for 16-18 hours, and then centrifuged at […] for 25 min at 2,500×g. Alternatively, the incubation was conducted at 24° C. […] This, must be kept in mind when comparing IC50 concentrations among compounds provided herein.
The supernatant, containing unbound radioactivity, was decanted and the pellet counted on a Genesys multiwell gamma counter. The degree of inhibition of binding (D) was calculated according to the following equation: [formula]
Each test was generally performed in triplicate.

Setting [1] is: Table 1, † incubation at 24° C.
The mark [2] stands for this setting: Table 2, † incubation at 24° C.
Where [3] appears, read: Table 3, † incubation at 24° C.

Where two headings read alike, the source gives them in different places. A value given as a limit tells only on which side of the number the result lay.

Consider `Cc1cc(S(=O)(=O)Nc2onc(C)c2Br)c(C)s1` [N-(4-Bromo-3-methyl-5-isoxazolyl)-2,5-dimethylthiophene-3-sulfonamide], for which the IC50 at human ETB receptor (Table 1, incubation at 4° C.) was found to be 7800 nM; on human ETA receptors (Table 1, incubation at 4° C.), 95.6 nM. Taken in the same sequence, the figures for `Cc1noc(NS(=O)(=O)c2ccsc2C(=O)Nc2ccc(C(C)(C)C)cc2)c1Br` [N-(4-bromo-3-methyl-5-isoxazolyl)-2-(4-t-butylphenyl)aminocarbonylthiophene-3-sulfonamide] were 2820 nM and 11 nM. Taken in the same sequence, the figures for `Cc1noc(NS(=O)(=O)c2ccsc2C(=O)Nc2ccc(C(C)C)cc2)c1Br` [N-(4-bromo-3-methyl-5-isoxazolyl)-2-[N-(4-isopropylphenyl)aminocarbonyl]thiophene-3-sulfonamide] were 1130 nM and less than 10 nM. `Cc1noc(NS(=O)(=O)c2sc3ccc(Cl)cc3c2C)c1Br` [N-(4-Bromo-3-methyl-5-isoxazolyl)-5-chloro-3-methylbenzo[b]thiophene-2-sulfonamide]: the IC50 on human ETB receptor (Table 1, incubation at 4° C.) stood at 1630 nM; on human ETA receptors (Table 1, incubation at 4° C.), 960 nM.

Regarding `CCCc1ccc(-c2ccc(S(=O)(=O)Nc3onc(C)c3Br)s2)cc1` [N-(4-bromo-3-methyl-5-isoxazolyl)-5-(4′-propylphenyl))thiophene-2-sulfonamide], the IC50 at human ETB receptor (Table 1, incubation at 4° C.) is 510 nM; on human ETA receptors (Table 1, incubation at 4° C.), 5600 nM. Consider `Cc1noc(NS(=O)(=O)c2sccc2/C=C/c2ccc3c(c2)OCO3)c1Br` [N-(4-bromo-3-methyl-5-isoxazolyl)-3-[3,4-(methylenedioxy)-trans-styryl]thiophene-2-sulfonamide], for which the IC50 at human ETB receptor (setting [1]) amounted to 10000 nM; at human ETA receptors (setting [1]), 218 nM. For “N-(4-bromo-3-methyl-5-isoxazolyl)-4′-trifluorophenyl-4-biphenylsulfonamide”, the IC50 at human ETB receptor (Table 2, incubation at 4° C.) came out at 83 ± 20 nM; at human ETB receptor (setting [2]), 710 ± 430 nM; on human ETA receptors (Table 2, incubation at 4° C.) it was 5400 ± 300 nM; at human ETA receptors (setting [2]) it was 25900 ± 13700 nM. For the compound `Cc1ccc(-c2ccc(S(=O)(=O)Nc3onc(C)c3Br)s2)o1` [N-(4-bromo-3-methyl-5-isoxazolyl)-5-(2-methyfuranyl)thiophene-2-sulfonamide], the figures for the IC50 at human ETB receptor (setting [1]) and on human ETA receptors (setting [1]) were 7500 nM and 32000 nM, respectively. As to `Cc1cc(C)c(NC(=O)c2sccc2S(=O)(=O)Nc2onc(C)c2Cl)c(C(=O)c2ccccc2)c1` [N-(2-benzoyl-4,6-dimethylphenyl)-3-(((4-chloro-3-methyl-5-isoxazolyl)amino)sulfonyl)-2-thiophenecarboxamide], the ETA/ETB selectivity at human ETA receptors (Table 3) was 6000^∥. The IC50 on human ETA receptors (setting [3]) is 4.26 nM. As for `COC(=O)Oc1c(C)cc(C)c(NC(=O)c2sccc2S(=O)(=O)Nc2onc(C)c2Cl)c1C` [3-(((3-(((4-chloro-3-methyl-5-isoxazolyl)amino)sulfonyl)-2-thienyl)carbonyl)amino)-2,4,6-trimethylphenyl methyl carbonate], at human ETA receptors (setting [3]), the IC50 is 0.75 nM. `CCC(=O)c1cc(C)cc(C)c1NC(=O)c1sccc1S(=O)(=O)Nc1onc(C)c1Cl` [3-(((4-chloro-3-methyl-5-isoxazolyl)amino)sulfonyl)-N-(2,4-dimethyl-6-propionylphenyl)-2-thiophenecarboxamide]: at human ETA receptors (Table 3), the ETA/ETB selectivity is given as 21000^∥. In addition, the IC50 on human ETA receptors (setting [3]) was determined as 0.61 nM. Take `CC(=O)c1cc(C)cc(C)c1NC(=O)c1sc(C)cc1S(=O)(=O)Nc1onc(C)c1Cl` [N-(2-acetyl-4,6-dimethylphenyl)-3-(((4-chloro-3-methyl-5-isoxazolyl)amino)sulfonyl)-5-methyl-2-thiophenecarboxamide]: at human ETA receptors (Table 3), the ETA/ETB selectivity is 9000^∥. Besides, the IC50 at human ETA receptors (setting [3]) came out at 2.94 nM. For the compound `Cc1ccc(OC(=O)c2sccc2S(=O)(=O)Nc2onc(C)c2Br)cc1` [N-(4-bromo-3-methyl-5-isoxazolyl)-2-[(4-methylphenoxy)carbonyl]thiophene-3-sulfonamide], at human ETA receptors (setting [1]), the IC50 came out at 122000 nM. `Cc1cc(C)c(OC(N)=O)c(C)c1NC(=O)c1sccc1S(=O)(=O)Nc1onc(C)c1Cl` [3-(((3-(((4-chloro-3-methyl-5-isoxazolyl)amino)sulfonyl)-2-thienyl)carbonyl)amino)-2,4,6-trimethyiphenyl carbamate]: the IC50 on human ETA receptors (setting [3]) was determined as 5.45 nM. Consider `Cc1noc(NS(=O)(=O)c2cc(S(=O)(=O)c3ccccc3)cs2)c1Br` [N-(4-Bromo-3-methyl-5-isoxazolyl)-4-benzenesulfonylthiophene-2-sulfonamide], for which the IC50 on human ETA receptors (Table 1, incubation at 4° C.) is 383 nM.

In the case of `COC(=O)c1sccc1S(=O)(=O)Nc1onc(C)c1C` [N-(3,4-dimethyl-5-isoxazolyl)-2-(carbomethoxy)thiophene-3-sulfonamide], at human ETA receptors (Table 1, incubation at 4° C.), the IC50 was 367 nM. On to `COC(=O)c1cc(OC)c(OC)cc1NC(=O)c1sccc1S(=O)(=O)Nc1onc(C)c1Cl` [N-(4-chloro-3-methyl-5-isoxazolyl)2-{[4,5-dimethoxy-2,4,5-di] [N-(4-chloro-3-methyl-5-isoxazolyl)2-{[4,5-dimethoxy-2,4,5-dimethoxy-2-methoxycarbonyl)phenyl]phenylaminocarbonyl}thiophene-3-sulfonamide], for which, at human ETA receptors (setting [1]), the IC50 was 3800 nM. Turning to `Cc1cc(C)c(NC(=O)c2sccc2S(=O)(=O)Nc2onc(C)c2Cl)c(C(=O)C2CCCCC2)c1` [3-(((4-chloro-3-methyl-5-isoxazolyl)amino)sulfonyl)-N-(2-(cyclohexylcarbonyl)-4,6-dimethylphenyl)-2-thiophenecarboxamide], at human ETA receptors (Table 3), the ETA/ETB selectivity is recorded as 1300^∥. Also, the IC50 on human ETA receptors (setting [3]) is 14.9 nM. As to `Cc1noc(NS(=O)(=O)c2ccco2)c1C` [N-(3,4-dimethyl-5-isoxazolyl)furan-2-sulfonamide], the IC50 on human ETA receptors (Table 1, incubation at 4° C.) came to 3130 nM.
